In ChEMBL document CHEMBL1649129, “Treatment with the fusion inhibitor enfuvirtide influences the appearance of mutations in the human immunodeficiency virus type 1 regulatory protein rev” (2009):

Key:
Type in all cases: functional
[1] = tested on: Human immunodeficiency virus 1; experiment: Antiviral activity against HIV1 harboring wild type regulatory protein rev isolated from patient with viral infection assessed as change in viral RNA count after 48 weeks relative to control
[2] = tested on: Human immunodeficiency virus 1; experiment: Antiviral activity against HIV1 harboring wild type regulatory protein rev isolated from patient with viral infection assessed as change in CD4 cell count after 48 weeks relative to control
[3] = tested on: Human immunodeficiency virus 1; experiment: Antiviral activity against HIV1 harboring E57A mutant regulatory protein rev isolated from patient with viral infection assessed as viral RNA count after 48 weeks (reference value: 4.9/ml)
[4] = tested on: Human immunodeficiency virus 1; experiment: Antiviral activity against HIV1 harboring E57A mutant regulatory protein rev isolated from patient with viral infection assessed as change in viral RNA count after 48 weeks relative to control
[5] = tested on: Human immunodeficiency virus 1; experiment: Antiviral activity against HIV1 harboring wild type regulatory protein rev isolated from patient with viral infection assessed as viral RNA count after 48 weeks (reference value: 4.9/ml)
[6] = tested on: Human immunodeficiency virus 1; experiment: Antiviral activity against HIV1 harboring E57A mutant regulatory protein rev isolated from patient with viral infection assessed as CD4 cell count after 48 weeks (reference value: 176/ul)
[7] = tested on: Human immunodeficiency virus 1; experiment: Antiviral activity against HIV1 harboring E57A mutant regulatory protein rev isolated from patient with viral infection assessed as change in CD4 cell count after 48 weeks relative to control
[8] = tested on: Human immunodeficiency virus 1; experiment: Antiviral activity against HIV1 harboring wild type regulatory protein rev isolated from patient with viral infection assessed as CD4 cell count after 48 weeks (reference value: 146/ul)

Substance: enfuvirtide
- fold change (FC) [1]: -0.84
- fold change (FC) [2]: 56
- Activity [3]: 5.4 log10 copies/mL
- fold change (FC) [4]: 0.93
- Activity [5]: 4.4 log10 copies/mL
- CD4 count [6]: 104 cells/µL
- fold change (FC) [7]: -42
- CD4 count [8]: 192 cells/µL
